Results on 28 compounds are retold here after patent US20230107538A1, “CYCLOALKYL-CONTAINING CARBOXYLIC ACIDS AND USES THEREOF” (LIMINAL BIOSCIENCES LIMITED, priority 2019, published 2023).

Molecules are shown by their SMILES.

Type in all cases: cell-based
The target in one experiment is T1, human GPR40 (Homo sapiens, UniProt O14842).
T1 construct: host or cells: HEK293 (transient)
Put plainly: GPR40 β-arrestin 2 recruitment BRET, agonist mode. The note with it: HEK293 cells, read-out: GPR40 (agonist mode) EC50 β-arr2. From the text: (§1) Plasmids: The cDNA clones for human GPR40 and GPR84 receptors, human β-arrestin 2, Gαi2, Gβ1, and Gγ2 were obtained from the cDNA Resource Center (www.cdna.org). A plasmid encoding the human GPR120-L (long isoform) cDNA was obtained from R&D Systems. GPR120-S (short isoform) was generated by replacing the BglII-BsgI fragment from GPR120-L by a gBlock gene fragment (Integrated DNA Technologies, IA) lacking the DNA sequence corresponding to the extra 16 amino acids found in the third intracellular loop of the long form. GFP10 (F64L, S147P, S202F and H231L variant of Aequorea victoria GFP) gBlocks gene fragments (Integrated DNA Technologies) and linker were inserted in frame at the N-terminus of human Gγ2, or at the C-terminus of GPR40 and GPR120. Rluc8 (A55T, C124A, S130A, K136R, A143M, M185V, M253L, and S287L variant of the Renilla luciferase) gBlocks gene fragment (Integrated DNA Technologies) was inserted with linkers in between residues 91 and 92 of Gα2 or at the N-terminus of β-arrestin 2.
(§2) BRET measurements: a Gαi bioluminescence resonance energy transfer (BRET) biosensor was used to directly monitor GPR84-mediated activation of Gαi. The Gαi biosensor consists of a Rluc8-tagged Gαi2 subunit, a GFP10-tagged Gγ2 subunit, and an untagged Gβ1. Agonist stimulation and ensuing GPR84 activation triggers a physical separation between the RLuc8-Gαi donor and the GFP10-Gγ2 acceptor, resulting in a decrease in BRET signal whose amplitude is correlated to ligand efficacy. A BRET-based assay that allows the monitoring of Rluc8-tagged β-arrestin 2 recruitment to GFP10-tagged GPR40 or GFP10-tagged GPR120 was used to assess GPR40 or GPR120 activation. Transiently transfected HEK293 cells were seeded in 96-well white clear bottom Costar microplates (Fisher Scientific) coated with poly-D-lysine (Sigma-Aldrich) and left in culture for 24 hours. Cells were washed once with Tyrode's buffer (140 mmol/L NaCl, 1 mmol/L CaCl2, 2.7 mmol/L KCl, 0.49 mmol/L MgCl2, 0.37 mmol/L NaH2PO4, 5.6 mmol/L glucose, 12 mmol/L NaHCO3, and 25 mmol/L HEPES, pH 7.5) and the Rluc8 substrate coelenterazine 400A (Prolume, Lakeside, Ariz.) added at a final concentration of 5 μmol/L in Tyrode's buffer. Ligands were incubated with cells at room temperature for 5 minutes (G protein) or 25 minutes (β-arrestin) before reading BRET signal. In GPR84 antagonist mode, cells were treated with 125 μmol/L of the GPR84 agonist sodium decanoate in combination with test compounds. BRET readings were collected using an Infinite M1000 microplate reader (Tecan, Morrisville, N.C.). BRET^2 readings between Rluc8 and GFP10 were collected by sequential integration of the signals detected in the 370 to 450 nm (Rluc8) and 510 to 540 nm (GFP10) windows. The BRET signal was calculated as the ratio of light emitted by acceptor (GFP10) over the light emitted by donor (Rluc8). The values were corrected to net BRET by subtracting the background BRET signal obtained in cells transfected with Rluc8 constructs alone. Ligand-promoted net BRET values were calculated by subtracting vehicle-induced net BRET from ligand-induced net BRET.

Experiment [1] concerns the target T2, human GPR84 (Homo sapiens, UniProt Q9NQS5).
T2 construct: host or cells: HEK293 (transient)
Briefly: GPR84 Gαi BRET biosensor, antagonist mode (125 μmol/L sodium decanoate). The conditions noted are these: HEK293 cells, with 125 μmol/L sodium decanoate.
Description: as §1, §2

For a further experiment, the target named is T3, human GPR120 (Homo sapiens, UniProt Q5NUL3).
T3 sequence (Q5NUL3 1-361): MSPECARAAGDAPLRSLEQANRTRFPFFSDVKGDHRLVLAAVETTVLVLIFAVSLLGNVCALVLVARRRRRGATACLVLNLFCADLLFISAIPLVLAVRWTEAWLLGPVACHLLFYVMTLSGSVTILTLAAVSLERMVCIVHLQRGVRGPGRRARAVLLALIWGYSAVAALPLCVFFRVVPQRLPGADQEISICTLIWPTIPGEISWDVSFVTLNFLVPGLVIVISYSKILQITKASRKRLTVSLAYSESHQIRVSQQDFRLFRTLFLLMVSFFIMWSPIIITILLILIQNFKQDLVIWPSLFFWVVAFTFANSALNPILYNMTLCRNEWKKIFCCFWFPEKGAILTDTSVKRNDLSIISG
Briefly: GPR120 β-arrestin 2 recruitment BRET, agonist mode. The conditions noted are these: HEK293 cells, read-out: GPR120 (agonist mode) EC50 β-arr2.
Description: as §1, §2
Background: Activated receptors often draw arrestin, which recruitment assays turn into a signal.

The target of experiment [2] is T2, human GPR84. Briefly: GPR84 Gαi BRET biosensor, agonist activity. The note with it: HEK293 cells.
Description: as §1, §2

T1 sequence (O14842 whole entry): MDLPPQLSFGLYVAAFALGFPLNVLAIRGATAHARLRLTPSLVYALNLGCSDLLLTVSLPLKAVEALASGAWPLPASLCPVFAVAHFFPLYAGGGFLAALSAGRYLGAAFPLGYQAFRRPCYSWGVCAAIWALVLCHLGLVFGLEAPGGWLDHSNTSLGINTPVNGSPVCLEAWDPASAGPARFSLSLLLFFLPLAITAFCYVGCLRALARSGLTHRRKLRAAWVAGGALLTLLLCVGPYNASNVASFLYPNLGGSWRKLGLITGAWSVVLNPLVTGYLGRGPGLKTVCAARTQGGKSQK
T2 sequence (Q9NQS5 whole entry): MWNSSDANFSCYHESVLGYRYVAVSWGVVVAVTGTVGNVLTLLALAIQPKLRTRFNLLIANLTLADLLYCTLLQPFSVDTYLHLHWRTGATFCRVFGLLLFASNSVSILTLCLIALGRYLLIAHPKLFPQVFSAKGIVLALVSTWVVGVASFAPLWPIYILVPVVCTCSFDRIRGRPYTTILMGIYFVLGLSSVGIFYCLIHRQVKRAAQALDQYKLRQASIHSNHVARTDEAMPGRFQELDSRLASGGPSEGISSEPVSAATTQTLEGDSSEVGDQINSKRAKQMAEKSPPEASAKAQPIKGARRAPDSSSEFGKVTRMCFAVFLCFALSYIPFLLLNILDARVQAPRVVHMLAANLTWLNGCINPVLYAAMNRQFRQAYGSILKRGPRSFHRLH

In general, EC50 refers to the midpoint of the concentration-response curve. In general, IC50 refers to the concentration needed to halve the response being measured. As to `CCCCCCCCC1(C(=O)O)CC1`, the EC50 was 164 µM on human GPR40 and 245 µM at human GPR120. At human GPR84 [1], the IC50 worked out at 115 µM.
`CCCCCCC1CC1CC(=O)O` (stereo not shown): the EC50 at human GPR40 was 170 µM; on human GPR84 [2], below 16 µM; at human GPR120, 272 µM.
As to `CCCC[C@H]1CC[C@H](CCC(=O)O)CC1`, the EC50 on human GPR40 was determined as 21 µM; at human GPR120, 22 µM. In addition, the IC50 at human GPR84 [1] was 22 µM.
Regarding `CCCCC[C@H]1CCC[C@@H](CC(=O)O)C1`, the EC50 on human GPR40 worked out at 12 µM; at human GPR120, 377 µM. On human GPR84 [1], the IC50 was 56 µM.
On to `CCCCCCC1CC1C(=O)C(=O)O` (stereo not shown), for which the EC50 at human GPR40 was 321 µM; at human GPR84 [2] it was 36.9 µM; on human GPR120, above 500 µM.
Regarding `CCCCCCC1C(CC(=O)O)C1(F)F` (stereo not shown), the EC50 was found to be 126 µM at human GPR40 and 383 µM at human GPR120. Also, the IC50 on human GPR84 [1] was 117 µM.
Taken in the same sequence, the figures for `CCCCCC1C(CCC(=O)O)C1(Br)Br` (stereo not shown) were 16 µM, 45 µM and 20 µM.
`CCCCCC1C(CCC(=O)O)C1(C)C` (stereo not shown): the EC50 on human GPR40 is 27 µM; at human GPR120 it was above 63 µM. For the same compound, the IC50 on human GPR84 [1] is above 63 µM.
Consider `[2H]C1([2H])C(CCCCCCC)C1CC(=O)[O-].[Na+]` (stereo not shown), for which the EC50 worked out at 149 µM at human GPR40, 23 µM on human GPR84 [2] and 299 µM on human GPR120.
As for `CCCCCC1C(CCC(=O)O)C1(F)F` (stereo not shown), the EC50 on human GPR40 was 133 µM; at human GPR84 [2], 79 µM; on human GPR120 it was above 500 µM.
On to `CC1(C)CC1CCCCCCCC(=O)O` (stereo not shown), for which the figures for the EC50 at human GPR40, at human GPR84 [2] and at human GPR120 were 11 µM, 5 µM and 77 µM, respectively.
`CCCCCCCC1(CC(=O)O)CC1`: the EC50 is 122 µM on human GPR40 and at least 500 µM at human GPR120. Also, the IC50 at human GPR84 [1] is above 500 µM.
Turning to `CCCCCCC1OC1CC(=O)O` (stereo not shown), the EC50 was above 500 µM at human GPR40, 114 µM at human GPR84 [2] and above 500 µM at human GPR120.
With `CC1(C)CC1CCCCC/C=C/C(=O)O` (stereo not shown), the EC50 at human GPR40 was 22 µM; on human GPR84 [2], 6 µM; at human GPR120, 61 µM.
`CCCCCCCC1CC1C(=O)O` (stereo not shown): the values for the EC50 at human GPR40, at human GPR84 [2] and at human GPR120 were 49 µM, 13 µM and above 250 µM, respectively.
As to `CC1(C)CC1CCCCCC1CC1C(=O)O` (stereo not shown), the EC50 at human GPR40 came out at 14.3 µM; at human GPR120, 35 µM.
Turning to `CCCCCC1CC(CC(=O)O)C1` (stereo not shown), the EC50 was 87 µM at human GPR40, 35 µM at human GPR84 [2] and above 500 µM on human GPR120.
For the compound `CCCCCC1CC(=CC(=O)O)C1` (stereo not shown), the EC50 at human GPR40 was 70 µM; at human GPR84 [2], below 16 µM; at human GPR120, 88 µM.
As for `CCCCCC=C1CC(C(=O)O)C1` (stereo not shown), the half-maximal effective concentration (EC50) at human GPR40 is 252 µM; on human GPR120, above 500 µM. At human GPR84 [1], the IC50 worked out at 131 µM.
Take `CCCCCCC1CC(C(=O)O)C1` (stereo not shown): the results for the EC50 on human GPR40, on human GPR84 [2] and at human GPR120 were 63.4 µM, 73 µM and 382 µM, respectively.
For `CCCCCC1CC/C1=C/C(=O)O` (stereo not shown), the EC50 amounted to 211 µM at human GPR40 and 307 µM at human GPR120. Moreover, the IC50 at human GPR84 [1] amounted to 180 µM.
`CCCCCC1CCC1CC(=O)O` (stereo not shown): the EC50 on human GPR40 is 83 µM; on human GPR120, above 500 µM. Besides, the IC50 on human GPR84 [1] was determined as 173 µM.
Regarding `CCCCCCC1C(CCC(=O)O)C1(C)C` (stereo not shown), the EC50 was 10 µM at human GPR40 and above 31 µM at human GPR120. The IC50 at human GPR84 [1] was found to be 9 µM.
With `CCCCCC1CC(CC(=O)O)C1(C)C` (stereo not shown), the EC50 on human GPR40 came out at 15 µM; at human GPR120 it was 90 µM. The IC50 at human GPR84 [1] was 49 µM.
With `CCCCCCCC1(CC(=O)O)CCC1`, the EC50 was 21 µM on human GPR40 and above 63 µM at human GPR120. For the same compound, the IC50 at human GPR84 [1] was above 63 µM.
`CCCCCCC1C(CC(=O)O)C1(C)C` (stereo not shown) [drawing 299]: the EC50 at human GPR40 is 30 µM; on human GPR120, above 125 µM. For the same compound, the IC50 on human GPR84 [1] amounted to 56 µM.
With `CCCCCCC1C(CC(=O)O)C1(C)C` (stereo not shown) [drawing 302], the concentration for a half-maximal effect (EC50) at human GPR40 and on human GPR120 was above 63 µM in each case.
Consider `CCCCCCC1C(CC(=O)O)C1(C)C` (stereo not shown) [drawing 311], for which the EC50 is 174 µM on human GPR40 and above 500 µM on human GPR120. At human GPR84 [1], the IC50 turned out to be 468 µM.
